{"source": "ChEMBL document CHEMBL2203026", "key": {"[1]": {"target": "T1, Metabotropic glutamate receptor 3 (Homo sapiens, UniProt Q14832)", "assay": "Negative allosteric modulation of mGlu3 assessed as thallium flux through GIRK channels by cell-based assay"}, "[2]": {"target": "T1, Metabotropic glutamate receptor 3", "assay": "Negative allosteric modulation of mGlu3 assessed as inhibition of glutamate-induced thallium flux through GIRK channels by cell-based assay", "design": "concentration or dose not given beside the values", "conditions": "concentration not given here; call rule not given here"}, "[3]": {"target": "T1, Metabotropic glutamate receptor 3", "assay": "Negative allosteric modulation of mGlu3 by cell-based assay"}, "[4]": {"target": "T2, Metabotropic glutamate receptor 2 (Homo sapiens, UniProt Q14416)", "T2 sequence (Q14416 whole entry)": "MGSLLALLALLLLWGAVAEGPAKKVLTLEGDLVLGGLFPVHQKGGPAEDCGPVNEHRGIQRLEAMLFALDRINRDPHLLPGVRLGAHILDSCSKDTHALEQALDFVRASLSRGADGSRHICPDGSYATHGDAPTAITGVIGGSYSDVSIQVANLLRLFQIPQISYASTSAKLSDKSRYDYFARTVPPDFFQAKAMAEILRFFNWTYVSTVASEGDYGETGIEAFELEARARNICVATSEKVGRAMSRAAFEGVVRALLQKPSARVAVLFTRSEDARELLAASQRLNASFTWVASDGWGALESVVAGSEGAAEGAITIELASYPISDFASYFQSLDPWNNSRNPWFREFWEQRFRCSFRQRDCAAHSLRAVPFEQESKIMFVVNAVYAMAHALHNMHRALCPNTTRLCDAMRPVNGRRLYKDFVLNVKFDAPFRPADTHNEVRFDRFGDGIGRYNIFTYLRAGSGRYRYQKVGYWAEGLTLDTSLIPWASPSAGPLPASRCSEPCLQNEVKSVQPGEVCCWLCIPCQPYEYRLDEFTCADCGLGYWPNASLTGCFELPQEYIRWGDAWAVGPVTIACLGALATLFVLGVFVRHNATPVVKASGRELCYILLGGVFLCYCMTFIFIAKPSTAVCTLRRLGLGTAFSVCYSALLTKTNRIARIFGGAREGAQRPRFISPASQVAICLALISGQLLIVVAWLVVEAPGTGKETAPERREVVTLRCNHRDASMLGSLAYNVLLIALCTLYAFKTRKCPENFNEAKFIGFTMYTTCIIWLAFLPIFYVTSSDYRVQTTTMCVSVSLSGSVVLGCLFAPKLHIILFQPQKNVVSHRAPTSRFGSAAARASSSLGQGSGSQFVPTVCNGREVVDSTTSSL", "assay": "Negative allosteric modulation of mGlu2 by cell-based assay"}, "[5]": {"target": "T2, Metabotropic glutamate receptor 2", "assay": "Negative allosteric modulation of human mGlu2 expressed in AV-12 cells in presence of glutamate EC90 concentration by FLIPR assay", "format": "cell-based, AV12"}, "[6]": {"assay": "Selectivity index, ratio IC50 for mGlu2 to IC50 for mGlu3"}, "[7]": {"target": "T1, Metabotropic glutamate receptor 3", "assay": "Negative allosteric modulation of human mGlu3 expressed in AV-12 cells in presence of glutamate EC90 concentration by FLIPR assay", "format": "cell-based, AV12"}, "[8]": {"target": "T2, Metabotropic glutamate receptor 2", "assay": "Negative allosteric modulation of mGlu2 assessed as thallium flux through GIRK channels by cell-based assay"}, "[9]": {"assay": "Drug metabolism in human liver microsome assessed as CYP450-mediated (R)-(3-(hydroxymethyl)piperidin-1-yl)(4-((4-hydroxyphenyl)ethynyl)phenyl)methanone formation", "format": "ADME", "conditions": "microsomes"}, "[10]": {"assay": "Drug metabolism in rat liver microsome assessed as CYP450-mediated (R)-(3-(hydroxymethyl)piperidin-1-yl)(4-((4-hydroxyphenyl)ethynyl)phenyl)methanone formation", "format": "ADME", "conditions": "microsomes"}, "[11]": {"assay": "Fraction unbound in human plasma", "format": "ADME, cell-free"}, "[12]": {"assay": "Fraction unbound in rat plasma", "format": "ADME, cell-free"}, "[13]": {"test_system": "Nucleic Acid", "assay": "Ratio of drug level in brain to plasma of rat at 10 mg/kg", "format": "ADME, organism-based", "design": "dose 10 mg/kg"}, "[14]": {"target": "Cytochrome P450 2D6 (Homo sapiens, UniProt P10635)", "sequence (P10635 whole entry)": "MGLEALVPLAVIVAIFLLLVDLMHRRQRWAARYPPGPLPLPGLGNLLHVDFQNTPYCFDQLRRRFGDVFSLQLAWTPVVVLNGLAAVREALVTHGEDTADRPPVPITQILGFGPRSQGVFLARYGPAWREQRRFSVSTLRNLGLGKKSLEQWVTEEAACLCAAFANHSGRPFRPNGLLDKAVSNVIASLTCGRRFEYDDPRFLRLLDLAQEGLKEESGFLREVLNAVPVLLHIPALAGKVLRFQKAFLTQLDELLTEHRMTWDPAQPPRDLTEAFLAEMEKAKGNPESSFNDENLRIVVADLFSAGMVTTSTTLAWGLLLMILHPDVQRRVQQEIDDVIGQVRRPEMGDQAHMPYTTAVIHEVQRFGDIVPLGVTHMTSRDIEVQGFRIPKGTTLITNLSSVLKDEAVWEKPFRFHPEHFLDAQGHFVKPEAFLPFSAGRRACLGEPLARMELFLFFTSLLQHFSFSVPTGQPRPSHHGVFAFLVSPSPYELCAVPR", "assay": "Inhibition of CYP2D6 in human liver microsomes", "format": "ADME, Microsome"}, "[15]": {"assay": "Volume of distribution at steady-state concentration in rat at 1 mg/kg, iv", "format": "ADME, organism-based", "design": "dose 1 mg/kg, route intravenous", "conditions": "in vivo, read-out: Vdss"}, "[16]": {"assay": "Half life in rat at 1 mg/kg, iv", "format": "ADME, organism-based", "design": "dose 1 mg/kg, route intravenous", "conditions": "in vivo"}, "[17]": {"target": "T3, Metabotropic glutamate receptor 5 (Rattus norvegicus, UniProt P31424)", "assay": "Positive allosteric modulation of mGlu5 assessed as potentiation of glutamate-induced calcium mobilization by cell based assay", "format": "functional"}, "[18]": {"test_system": "Brain", "assay": "Drug level in rat brain at 10 mg/kg", "format": "ADME, organism-based", "design": "dose 10 mg/kg", "conditions": "in vivo, read-out: Drug uptake"}, "[19]": {"target": "Cytochrome P450 3A4 (Homo sapiens, UniProt P08684)", "sequence (P08684 whole entry)": "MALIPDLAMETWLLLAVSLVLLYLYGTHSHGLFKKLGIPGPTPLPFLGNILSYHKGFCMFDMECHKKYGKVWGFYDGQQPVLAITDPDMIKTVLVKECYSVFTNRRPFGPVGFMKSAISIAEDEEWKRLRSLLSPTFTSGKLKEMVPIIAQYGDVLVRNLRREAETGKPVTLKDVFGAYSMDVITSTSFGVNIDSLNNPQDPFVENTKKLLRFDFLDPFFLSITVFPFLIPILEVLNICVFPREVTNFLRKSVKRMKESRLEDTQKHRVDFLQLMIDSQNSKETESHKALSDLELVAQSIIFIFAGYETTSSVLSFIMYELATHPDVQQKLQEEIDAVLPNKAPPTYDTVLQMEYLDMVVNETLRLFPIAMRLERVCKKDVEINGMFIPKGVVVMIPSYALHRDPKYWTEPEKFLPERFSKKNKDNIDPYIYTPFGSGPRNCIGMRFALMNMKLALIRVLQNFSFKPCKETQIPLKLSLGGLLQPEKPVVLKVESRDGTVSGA", "assay": "Inhibition of CYP3A4 in human liver microsomes", "format": "ADME, Microsome"}, "[20]": {"test_system": "Plasma", "assay": "Plasma concentration in rat at 10 mg/kg", "format": "ADME, organism-based", "design": "dose 10 mg/kg", "conditions": "in vivo"}, "[21]": {"target": "Cytochrome P450 2C9 (Homo sapiens, UniProt P11712)", "sequence (P11712 whole entry)": "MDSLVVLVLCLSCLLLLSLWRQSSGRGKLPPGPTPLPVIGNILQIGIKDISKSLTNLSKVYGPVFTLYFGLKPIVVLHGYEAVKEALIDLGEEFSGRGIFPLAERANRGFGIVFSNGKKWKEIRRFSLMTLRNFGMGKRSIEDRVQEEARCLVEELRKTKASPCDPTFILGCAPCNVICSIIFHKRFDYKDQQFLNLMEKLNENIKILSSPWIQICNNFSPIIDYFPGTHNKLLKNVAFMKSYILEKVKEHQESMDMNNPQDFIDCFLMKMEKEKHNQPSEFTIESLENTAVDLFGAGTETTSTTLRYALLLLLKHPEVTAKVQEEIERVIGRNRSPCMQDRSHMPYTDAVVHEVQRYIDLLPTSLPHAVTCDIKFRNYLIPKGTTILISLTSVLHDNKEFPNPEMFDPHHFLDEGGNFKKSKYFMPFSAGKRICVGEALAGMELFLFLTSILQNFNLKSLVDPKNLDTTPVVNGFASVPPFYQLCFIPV", "assay": "Inhibition of CYP2C9 in human liver microsomes", "format": "ADME, Microsome"}, "[22]": {"target": "T1, Metabotropic glutamate receptor 3", "assay": "Negative allosteric modulation of mGlu3 assessed as inhibition of glutamate-induced calcium mobilization in presence of Galpha15 by cell based assay", "format": "functional"}, "[23]": {"assay": "Clearance in rat at 1 mg/kg, iv", "format": "ADME, organism-based", "design": "dose 1 mg/kg, route intravenous", "conditions": "in vivo"}, "[24]": {"target": "T4, Cytochrome P450 1A2 (Homo sapiens, UniProt P05177)", "T4 sequence (P05177 whole entry)": "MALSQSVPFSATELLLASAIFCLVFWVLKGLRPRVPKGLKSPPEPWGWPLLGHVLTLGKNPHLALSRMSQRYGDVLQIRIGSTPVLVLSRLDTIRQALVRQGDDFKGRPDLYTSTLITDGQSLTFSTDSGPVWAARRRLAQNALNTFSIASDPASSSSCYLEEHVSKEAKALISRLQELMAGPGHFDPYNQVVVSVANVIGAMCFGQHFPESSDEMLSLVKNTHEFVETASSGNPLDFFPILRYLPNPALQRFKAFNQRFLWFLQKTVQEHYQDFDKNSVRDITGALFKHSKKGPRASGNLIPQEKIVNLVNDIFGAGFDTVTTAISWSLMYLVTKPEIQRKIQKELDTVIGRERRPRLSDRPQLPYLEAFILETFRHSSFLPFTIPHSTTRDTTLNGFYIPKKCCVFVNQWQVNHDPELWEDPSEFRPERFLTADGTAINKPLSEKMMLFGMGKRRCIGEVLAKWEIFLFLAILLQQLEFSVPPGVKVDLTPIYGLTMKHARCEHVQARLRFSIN", "assay": "Inhibition of CYP1A2 in human liver microsomes", "format": "ADME, Microsome"}, "[25]": {"target": "T3, Metabotropic glutamate receptor 5", "assay": "Negative allosteric modulation of mGlu5 assessed as inhibition of glutamate-induced calcium mobilization by cell based assay", "format": "functional"}, "[26]": {"target": "Metabotropic glutamate receptor 3 (Rattus norvegicus, UniProt P31422)", "sequence (P31422 whole entry)": "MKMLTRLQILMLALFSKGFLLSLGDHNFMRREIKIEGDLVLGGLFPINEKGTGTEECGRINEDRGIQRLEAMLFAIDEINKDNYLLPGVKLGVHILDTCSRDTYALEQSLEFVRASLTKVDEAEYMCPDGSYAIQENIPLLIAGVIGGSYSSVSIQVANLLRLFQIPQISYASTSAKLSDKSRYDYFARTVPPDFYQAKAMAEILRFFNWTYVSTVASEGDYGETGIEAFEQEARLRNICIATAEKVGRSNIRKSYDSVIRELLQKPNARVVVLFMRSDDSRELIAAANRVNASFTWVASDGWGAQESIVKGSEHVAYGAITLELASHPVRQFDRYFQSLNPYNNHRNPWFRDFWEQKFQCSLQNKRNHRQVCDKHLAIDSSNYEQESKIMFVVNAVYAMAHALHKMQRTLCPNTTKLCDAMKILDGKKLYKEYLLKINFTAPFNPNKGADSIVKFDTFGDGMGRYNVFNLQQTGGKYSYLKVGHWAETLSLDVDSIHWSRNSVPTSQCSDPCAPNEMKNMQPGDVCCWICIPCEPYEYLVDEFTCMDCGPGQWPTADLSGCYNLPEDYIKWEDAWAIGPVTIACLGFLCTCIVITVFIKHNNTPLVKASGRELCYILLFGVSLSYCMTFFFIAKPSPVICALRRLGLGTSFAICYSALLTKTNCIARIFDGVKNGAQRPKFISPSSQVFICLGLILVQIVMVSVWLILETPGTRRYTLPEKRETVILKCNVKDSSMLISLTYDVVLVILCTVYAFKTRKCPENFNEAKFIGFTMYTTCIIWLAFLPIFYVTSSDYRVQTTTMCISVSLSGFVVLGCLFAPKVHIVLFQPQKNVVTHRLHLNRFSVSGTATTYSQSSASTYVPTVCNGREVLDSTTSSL", "assay": "Negative allosteric modulation of rat mGlu3 assessed as assessed as thallium flux through GIRK channels by cell-based assay"}, "[27]": {"target": "T3, Metabotropic glutamate receptor 5", "assay": "Positive allosteric modulation of rat mGlu5 expressed in HEK293 cells in presence of glutamate EC20 concentration by Fluo-2AM dye based fluorescence analysis", "format": "cell-based"}}, "data": [{"compound": "COc1ccc(C#Cc2ccc(C(=O)N3CCC[C@H](C(=O)O)C3)cc2)cc1", "values": [{"measurement": "IC50", "setting": "[1]; read-out: IC50", "value": 5.7, "unit": "µM"}, {"measurement": "inhibition", "setting": "[2]", "value": 2.2, "unit": "%"}]}, {"compound": "COc1ccc(C#Cc2ccc(C(=O)N3CCCC(CO)C3)cc2)cc1", "note": "(racemic)", "values": [{"measurement": "IC50", "setting": "[1]; read-out: IC50", "value": 2.1, "unit": "µM"}, {"measurement": "inhibition", "setting": "[2]", "value": 0.5, "unit": "%"}]}, {"compound": "CCN1CCC[C@H]1CC(=O)c1ccc(C#Cc2ccc(OC)cc2)cc1", "values": [{"measurement": "IC50", "setting": "[1]; read-out: IC50", "value": "> 10", "unit": "µM"}, {"measurement": "inhibition", "setting": "[2]", "value": 9.6, "unit": "%"}]}, {"compound": "Cc1cc(-c2cccc(C3=Nc4cc(C)c(C(F)(F)F)cc4NC(=O)C3)c2)cc(C)n1", "values": [{"measurement": "IC50", "setting": "[3]", "value": 270, "unit": "nM"}, {"measurement": "IC50", "setting": "[4]", "value": 0.296, "unit": "µM"}]}, {"compound": "Clc1ccc(CN[C@H]2CCN(c3ncc(Br)cn3)C2)c(Cl)c1", "values": [{"measurement": "IC50", "setting": "[1]; read-out: IC50", "value": 4.2, "unit": "µM"}, {"measurement": "IC50", "setting": "[5]", "value": "> 12.5", "unit": "µM"}, {"measurement": "Ratio IC50", "setting": "[6]", "value": 4}, {"measurement": "IC50", "setting": "[7]", "value": 190, "unit": "nM"}, {"measurement": "IC50", "setting": "[8]", "value": 17, "unit": "µM"}]}, {"compound": "COc1ccc(C#Cc2ccc(C(=O)N3CCC[C@@H](C(=O)O)C3)cc2)cc1", "values": [{"measurement": "IC50", "setting": "[1]; read-out: IC50", "value": "> 10", "unit": "µM"}, {"measurement": "inhibition", "setting": "[2]", "value": 16.4, "unit": "%"}]}, {"compound": "COc1ccc(C#Cc2ccc(C(=O)N3CCN(C(C)C)CC3)cc2)cc1", "values": [{"measurement": "IC50", "setting": "[1]; read-out: IC50", "value": "> 10", "unit": "µM"}, {"measurement": "inhibition", "setting": "[2]", "value": 7.6, "unit": "%"}]}, {"compound": "COc1ccc(C#Cc2ccc(C(=O)N3CCC[C@@H](CO)C3)cc2)cc1", "values": [{"measurement": "Drug metabolism", "setting": "[9]", "value": "Active"}, {"measurement": "Drug metabolism", "setting": "[10]", "value": "Active"}, {"measurement": "fraction unbound", "setting": "[11]", "value": 0.02}, {"measurement": "fraction unbound", "setting": "[12]", "value": 0.01}, {"measurement": "BPR", "setting": "[13]", "value": 1.67}, {"measurement": "IC50", "setting": "[14]", "value": "> 30", "unit": "µM"}, {"measurement": "Vd", "setting": "[15]", "value": 0.6, "unit": "L/kg"}, {"measurement": "half-life", "setting": "[16]", "value": 16.8, "unit": "min"}, {"measurement": "EC50", "setting": "[17]", "value": "> 10", "unit": "µM"}, {"measurement": "IC50", "setting": "[1]; read-out: IC50", "value": 1.5, "unit": "µM"}, {"measurement": "IC50", "setting": "[4]", "value": "> 10", "unit": "µM"}, {"measurement": "concentration", "setting": "[18]", "value": 16.3, "unit": "µM"}, {"measurement": "IC50", "setting": "[19]", "value": "> 30", "unit": "µM"}, {"measurement": "concentration", "setting": "[20]", "value": 9.7, "unit": "µM"}, {"measurement": "IC50", "setting": "[21]", "value": "> 30", "unit": "µM"}, {"measurement": "Ratio IC50", "setting": "[6]", "value": 15}, {"measurement": "IC50", "setting": "[22]", "value": 660, "unit": "nM"}, {"measurement": "clearance", "setting": "[23]", "value": 33, "unit": "mL/min/kg"}, {"measurement": "IC50", "setting": "[24]", "value": "> 30", "unit": "µM"}, {"measurement": "IC50", "setting": "[25]", "value": "> 10", "unit": "µM"}, {"measurement": "inhibition", "setting": "[2]", "value": -4.4, "unit": "%"}]}, {"compound": "COc1ccc(C#Cc2ccc(C(=O)N3CCCC(O)C3)cc2)cc1", "note": "(centres undefined)", "values": [{"measurement": "IC50", "setting": "[1]; read-out: IC50", "value": 2.5, "unit": "µM"}, {"measurement": "inhibition", "setting": "[2]", "value": -1.1, "unit": "%"}]}, {"compound": "COc1ccc(C#Cc2ccc(C(=O)N3CCC(C)(O)CC3)cc2)cc1", "values": [{"measurement": "IC50", "setting": "[1]; read-out: IC50", "value": 5, "unit": "µM"}, {"measurement": "inhibition", "setting": "[2]", "value": 4.4, "unit": "%"}]}, {"compound": "COc1ccc(C#Cc2ccc(C(=O)N3CCC[C@H](CO)C3)cc2)cc1", "values": [{"measurement": "IC50", "setting": "[1]; read-out: pIC50 (converted)", "value": 3.24, "unit": "µM"}, {"measurement": "IC50", "setting": "[4]", "value": "> 10", "unit": "µM"}, {"measurement": "inhibition", "setting": "[2]", "value": -1.7, "unit": "%"}]}, {"compound": "O=C(c1ccc(C#Cc2ccccc2)cc1)N1CCC(O)CC1", "values": [{"measurement": "IC50", "setting": "[26]", "value": "> 10", "unit": "µM"}, {"measurement": "EC50", "setting": "[27]", "value": 270, "unit": "nM"}]}, {"compound": "COc1ccc(C#Cc2ccc(C(=O)N3CCC(O)CC3)cc2)cc1", "values": [{"measurement": "IC50", "setting": "[1]; read-out: IC50", "value": 3.8, "unit": "µM"}, {"measurement": "inhibition", "setting": "[2]", "value": 10.4, "unit": "%"}]}]}
